{"source": "patent US8828435B2", "about": "“Buccal delivery system” (Lingual Consegna Pty Ltd, priority 2006, dated 2014)", "key": {"[1]": {"assay": "Open-label clinical trial: plasma hormone pharmacokinetics after buccal LINGUET tablet, single dose and two weeks twice daily", "assay_type": "in vivo, post-menopausal women", "settings": "for absorption from the LINGUET tablet: achieved concentrations found in normal young menstruating women", "experimental": "The trial was conducted with approval of an ethics committee within the hospital.\nThe excipients in the LINGUET tablets consisted of silica gel, magnesium stearate, acacia, stevia and polyethylene glycol with a wildberry flavour. The LINGUET tablets employed in this trial were formulated in a single batch for the study using the process according to the invention as described in example 2 above. The LINGUET tablets were provided by Richard Stenlake Compounding Pharmacist (Bondi Junction, Australia).\nThe study was an open-label investigation in six post-menopausal women. Before entry into the trial, subjects gave informed consent, and underwent medical and biochemical screening. Subjects were in general good health, and at least one year post-menopausal.\nSubjects discontinued their prescribed HRT therapy as well as any herbal or alternative medicines not less than three days prior to the first study day. Subjects presented to the Clinical Trials Centre on the morning of each study day after an overnight fast. An indwelling cannula was inserted into a forearm vein and a baseline blood specimen collected.\nOn the first day, a half-LINGUET tablet was placed in the buccal cavity (between the cheek and the gum) and allowed to dissolve. Subjects were instructed not to swallow the formulation. […] Subjects rinsed their mouths with water at 45 min. Blood samples were collected via the cannula at timed intervals over 24 h. Subjects were discharged, but continued to take half a LINGUET tablet, twice daily, for the following two weeks. Subjects then re-presented to the Clinical Trials Centre where the morning dose was taken and further blood samples were collected at timed intervals over the dosage interval of 12 h.\nBlood samples were schedule for collection following the single dose at the following times:\nPre-dose (0), 0.25, 0.5, 0.75, 1.0, 1.5, 2.0, 3.0, 4.0, 6.0, 8.0, 12.0, 16.0, […] and 24.0 h following the single dose, and at pre-dose (0), 0.25. 0.5, 0.75, 1.0, 2.0, 2.5, 3.0, 4.0, 6.0, 8.0, 10.0 and 12 h after the two-week dosing interval (steady-state). Actual times were recorded, and these were used for the pharmacokinetic calculations.\nPlasma concentrations of hormones were determined using routine validated, radioimmunoassay techniques in the hospital laboratory (Sydpath, St Vincent's Hospital, Sydney). The laboratory is an accredited pathology provider that participates in national quality assurance programmes for hormonal analysis.\nDHEA was monitored as the sulphate metabolite (DHEAS), not as the administered hormone."}, "[2]": {"settings": "background statement, cited from earlier work; for absorbed fraction of the ingested dose: oral"}, "[3]": {"assay": "Hormone concentrations in saliva after buccal LINGUET tablet (radioimmunoassay)", "assay_type": "in vivo, post-menopausal women", "settings": "elevation maintained over the following 8-12 hours", "experimental": "Saliva was collected according to the standardized directions provided by the laboratory, Australian Reference Laboratories (Melbourne), and stored frozen (−20° C.) prior to shipping for hormonal analysis. In brief, subjects rinsed their mouths thoroughly with water and waited 5-10 min before swallowing any saliva in the mouth. Subjects then expressed saliva directly into the collection tubes.\nSaliva samples were obtained for single dose estimation at the following times: pre-dose (0), and 1.0, 4.0, 8.0, 12.0, 16.0 and 24 h after dosing. For steady-state analysis, saliva was collected at pre-dose (0), and 1.0, 4.0, 8.0 and 12.0 h after LINGUET tablet administration.\nHormone concentrations in saliva were conducted by the […] (Melbourne) using validated, commercial radioimmunoassays. This laboratory is similarly an accredited pathology provider."}, "[4]": {"settings": "plasma, single and multiple dosing"}}, "note": "Where two headings read alike, the source gives them in different places.", "data": [{"smiles": "C[C@]12CC[C@H](O)CC1=CC[C@@H]1[C@@H]2CC[C@]2(C)C(=O)CC[C@@H]12", "note": "[DHEA, dehydroepiandrosterone]", "values": [{"measurement": "absorption from the LINGUET tablet", "setting": "[1]; plasma", "value": "readily absorbed"}, {"measurement": "change of blood concentrations of DHEAS", "setting": "[1]; single dose one-half LINGUET tablet (5 mg DHEA), over 5-10 hours", "value": "doubling"}, {"measurement": "oral bioavailability", "setting": "[2]", "value": "over 90%"}]}, {"smiles": "C[C@]12CC[C@H](OS(=O)(=O)O)CC1=CC[C@@H]1[C@@H]2CC[C@]2(C)C(=O)CC[C@@H]12", "note": "[DHEA-sulphate, dehydroepiandrosterone-sulphate]", "values": [{"measurement": "Tmax Day 1", "setting": "[1]; plasma, after the first dose (half LINGUET tablet, buccal)", "value": 6.0, "unit": "h"}, {"measurement": "Cmax", "setting": "[1]; plasma, after the first dose (half LINGUET tablet, buccal), read-out: Cmax Day 1", "value": "0.0022 ± 0.0011", "unit": "µM"}, {"measurement": "Trough concentration at steady-state", "setting": "[1]; plasma, after two weeks of twice daily half-tablet, six women, mean ± spread", "value": "2.56 ± 1.99", "unit": "nmol/L"}, {"measurement": "Tmax Steady-state", "setting": "[1]; plasma, after two weeks of twice daily treatment", "value": 1.5, "unit": "h"}, {"measurement": "Cmax", "setting": "[1]; plasma, after two weeks of twice daily treatment, read-out: Cmax Steady-state", "value": "0.004 ± 0.002", "unit": "µM"}]}, {"smiles": "C[C@]12CC[C@@H]3c4ccc(O)cc4CC[C@H]3[C@@H]1CC[C@@H]2O", "note": "[Oestradiol, 17-β-oestradiol]", "values": [{"measurement": "concentrations in saliva compared with blood following use of the LINGUET tablet", "setting": "[3]", "value": "elevated many times higher than in blood"}]}, {"smiles": "CC(=O)[C@H]1CC[C@H]2[C@@H]3CCC4=CC(=O)CC[C@]4(C)[C@H]3CC[C@]12C", "note": "[Progesterone, progesterone]", "values": [{"measurement": "Cmax", "setting": "[1]; female, human, in vivo, Cmax Day 1", "value": "0.0229 ± 0.0069", "unit": "µM"}, {"measurement": "Cmax", "setting": "[1]; female, human, in vivo, Cmax Steady-state", "value": "0.0261 ± 0.0076", "unit": "µM"}, {"measurement": "Tmax", "setting": "[1]; female, human, in vivo, Tmax Day 1", "value": 1.5, "unit": "h"}, {"measurement": "Tmax", "setting": "[1]; female, human, in vivo, Tmax Steady-state", "value": 1, "unit": "h"}, {"measurement": "plasma concentration at steady-state versus physiological level", "setting": "[1]; in vivo", "value": "sustained at concentrations usually associated with physiological and biological activity in young normal women"}, {"measurement": "time until concentrations decreased to below those generally associated with biological activity in the endometrium", "setting": "[1]; in vivo", "value": "within five hours"}, {"measurement": "concentrations in saliva compared with blood following use of the LINGUET tablet", "setting": "[3]", "value": "elevated many times higher than in blood"}]}, {"smiles": "C[C@]12CC[C@H]3[C@@H](CCC4=CC(=O)CC[C@@]43C)[C@@H]1CC[C@@H]2O", "note": "[Testosterone, testosterone]", "values": [{"measurement": "Cmax", "setting": "[1]; female, human, in vivo, plasma, after the first dose (half LINGUET tablet, buccal), read-out: Cmax Day 1", "value": "0.0316 ± 0.0109", "unit": "µM"}, {"measurement": "Tmax", "setting": "[1]; female, human, in vivo, plasma, after the first dose (half LINGUET tablet, buccal), read-out: Tmax Day 1", "value": 0.6, "unit": "h"}, {"measurement": "concentration at 2 weeks", "setting": "[1]; female, human, in vivo, plasma, after two weeks of twice daily half-tablet, six women, mean ± spread, read-out: Trough concentration at steady-state", "value": "0.00067 ± 0.00028", "unit": "µM"}, {"measurement": "duration of markedly increased plasma concentrations", "setting": "[1]; [4]", "value": "up to 4 hours"}, {"measurement": "return to pre-treatment values", "setting": "[1]; [4]", "value": "≤ 8", "unit": "h"}, {"measurement": "time of peak concentrations (mean)", "setting": "[1]; [4]", "value": 0.6, "unit": "h"}, {"measurement": "absorption from the LINGUET tablet", "setting": "[1]; plasma", "value": "readily absorbed"}]}, {"smiles": "NCCCC(O)(P(=O)(O)O)P(=O)(O)O", "note": "[alendronate]", "values": [{"measurement": "absorbed fraction of the ingested dose", "setting": "[2]", "value": "about 1%"}]}, {"smiles": "O=P(O)(O)C(O)(Cc1cccnc1)P(=O)(O)O", "note": "[risedronate]", "values": [{"measurement": "absorbed fraction of the ingested dose", "setting": "[2]", "value": "about 1%"}]}]}
